Reference: patent publication US11285132B2, “Uses of indolinone compounds” (Oncternal Therapeutics, Inc., priority 2016, dated 2022)

Experiments:
Type in all cases: cell-based
THP-1 = experiment: 72 hr CellTiter-Glo, AML cell line; conditions: Homo sapiens
WSU-DLCL2 = experiment: 72 hr CellTiter-Glo, DLBCL cell line; conditions: Homo sapiens, WSUDLCL2
[1] = tested on: DLBLC cell lines (TMD8, HBL1, U2932); experiment: Dose-effect testing in combination with venetoclax
Text: In each of FIGS. 13-15, the top curve (×) was for the combination therapy, the middle curve (⊚) was for TK216, and the bottom curve (+) was for venetoclax. FIG. 13 is a dose-effect curve for TK216 in combination with venetoclax in the TMD8 cell line. FIG. 14 is a dose-effect curve for TK216 in combination with venetoclax in the U2932 cell line. FIG. 15 is a dose-effect curve for TK216 in combination with venetoclax in the HLB1 cell line.

IRF7 = experiment: Protein levels in cells; conditions: similarly to lenalidomide
Text: (§1) With the aim to understand the mechanism of action of YK-4-279 and TK-216, the baseline RNA expression levels of the different ETS factors were correlated with sensitivity to the drugs. SPIB was the gene presenting the most significant negative correlation with both YK-4-279 and TK-216, especially among the ABC DLBCL cell lines (P<0.05). SPIB is a known oncogene for ABC DLBCL (Lenz et al, PNAS 2008) and is involved in the response to lenalidomide in ABC DLBCL (Yang et al, Cancer Cell 2012). YK-4-279 inhibits the binding of EWS1-FLI1 to the helicases RHA and DDX5 (Selvanathan et al, PNAS 2012). Thus, it was assessed whether YK-4-279 and TK-216 can have a similar effect on SPIB and whether they induce cellular effects similar to lenalidomide. […] In ABC DLBCL, the ETS inhibitor YK-4-279 and its clinical derivative TK-216 interfere with SPIB and helicases involved in RNA editing. Moreover, both compounds act similarly to lenalidomide inhibiting IRF4 and upregulating IRF7 and synergize with the IMID in both ABC DLBCL and MCL.

IRF4 = experiment: Protein levels in cells; conditions: similarly to lenalidomide
Text: as §1

[2] = tested on: 6 DLBCL cell lines (TMD8, U2932, HBL1, OCI-LY-18, WSU-DLCL2, DOHH2); experiment: Cell cycle analysis and Annexin V staining; conditions: 24, 48, 72 h
Method: FIGS. 18A and 18B show apoptosis and cell cycle distribution of TK-216 in DLBCL cell lines. FIG. 18A) Induction of apoptosis in DLBCL cell lines exposed to TK-216 (500 nM) for 24, 48 or 72 hrs. In the figures are shown four representative (two ABC and two GCB) results. FIG. 18B) Cell cycle distribution in DLBCL cell lines treated with 500 nM of TK-216 for 24, 48 or 72 hrs. In the figure, two representative (one ABC and one GCB) results are shown. DMSO treatment was used as a control.
56 lymphoma cell lines [27 diffuse large B cell lymphoma (DLBCL); 10 mantle cell lymphoma; 6 marginal zone lymphoma; 5 anaplastic large T-cell lymphoma; 8 others] were exposed to TK-216 increasing doses for 72 h using a Tecan D300e Digital Dispenser and 384 well plates. Cell proliferation was measured with MTT. In vivo study was done in NOD-SCID mice; treatments were started with approximately sc 60 mm3 tumor volumes. Sensitivity was not affected by the lymphoma cell of origin (B vs T; activated B cell type DLBCL versus germinal center type DLBCL) or MYC and TP53 status. There was a non-statistically significant trend for lower sensitivity in cell lines bearing BCL2 chromosomal translocation (P=0.07, DLBCL only; P=0.06, all cell lines).

U2932 = experiment: 72 hr CellTiter-Glo, DLBCL cell line; conditions: Homo sapiens
[3] = tested on: myeloid cell lines (HL-60, Kasumi-1, ML-2, MOLM-13, MOLM-16, and THP-1); experiment: Viability and apoptosis in myeloid cell lines
Text: TK216 also had anti-proliferative effects, causes cell cycle arrest, and induces apoptosis in a panel of AML and DLBCL cell lines with deregulated ETS family members. […] In vivo efficacy studies in xenograft models of DLBCL indicated anti-tumor activity consistent with in vitro findings, confirming the utility and efficacy of TK216 in the treatment of AML and DLBCL by targeting the aberrant expression and translocations in the ETS-family of transcription factors, which contribute to the pathogenesis of the disease.

EWS-FLI1 = target: T1, EWS-FLI1 (Homo sapiens, UniProt Q01543+Q01844); experiment: EWS-FLI1 / NROB1 reporter-luciferase transcription in COS7 cells; conditions: COS7 cells transfected with a EWS-FLI1 responsive promoter; read-out: EC50, transcriptional decrease
T1 construct: EWS (part of EWSR1, Q01844); expressed in transfected cells; host or cells: COS7
T1 sequence (Q01543 220-452 limits assumed, one chain of several): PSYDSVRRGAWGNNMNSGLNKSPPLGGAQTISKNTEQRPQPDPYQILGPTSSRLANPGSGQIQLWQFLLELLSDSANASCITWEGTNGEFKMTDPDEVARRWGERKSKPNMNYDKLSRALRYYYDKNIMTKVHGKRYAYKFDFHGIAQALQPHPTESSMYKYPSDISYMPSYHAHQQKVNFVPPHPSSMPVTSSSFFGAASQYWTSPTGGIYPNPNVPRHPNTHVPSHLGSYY
Text: TK216 is a first in class, small molecule that directly binds EWS-FLI1 inhibiting the biological activity of ETS-family transcription factor oncoproteins and is currently under clinical investigation in patients with Ewing sarcoma.
TK216 reduced transcriptional activity in COS7 cells co-transfected with EWS-FLI1 and NROB1 reporter-luciferase plasmids which contain EWS-FLI1 DNA-binding sites, as shown in FIG. 3.

DOHH2 = experiment: 72 hr CellTiter-Glo, DLBCL cell line; conditions: Homo sapiens, DOHH-2
MOLM-16 = experiment: 72 hr CellTiter-Glo, AML cell line; conditions: MOLM16
SPIB to RHA = target: T2, SPIB to RHA (Homo sapiens, UniProt Q01892); experiment: Co-IP of SPIB with helicases in ABC DLBCL cell lines; conditions: 500 nM, 4-10 h
T2 construct: endogenous in cells
T2 sequence (Q01892 whole entry): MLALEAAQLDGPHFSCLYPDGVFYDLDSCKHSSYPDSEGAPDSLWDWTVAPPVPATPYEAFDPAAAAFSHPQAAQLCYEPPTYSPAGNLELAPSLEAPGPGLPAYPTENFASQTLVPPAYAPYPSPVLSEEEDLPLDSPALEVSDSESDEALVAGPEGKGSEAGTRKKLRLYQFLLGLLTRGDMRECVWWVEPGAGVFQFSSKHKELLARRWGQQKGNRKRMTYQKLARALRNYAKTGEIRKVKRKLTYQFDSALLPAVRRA
Text: as §1

SPIB to DDX5 = target: T3, SPIB to DDX5 (Homo sapiens, UniProt Q01892); experiment: as above; conditions: 500 nM, 4-10 h
T3 construct: endogenous in cells
T3 sequence (Q01892 whole entry): as above
Text: as §1

TMD-8 = experiment: 72 hr CellTiter-Glo, DLBCL cell line; conditions: Homo sapiens, TMD8

`O=C(CC1(O)C(=O)Nc2c(Cl)ccc(Cl)c21)c1ccc(C2CC2)cc1` (stereo not drawn) [TK216, 4,7-Dichloro-3-(2-(4-cyclopropylphenyl)-2-oxoethyl)-3-hydroxyindolin-2-one] was tested. Which IC50 (THP-1) did it give?
Its IC50 is 152 nM.

And the IC50 (WSU-DLCL2)?
The IC50 was 897 nM.

And the “combination effect with venetoclax, dose-effect” value [1]?
The value was “synergistic effect across doses”.

What about the “IRF7 protein in cells” value (IRF7) of the same molecule?
Its value is “upregulated IRF7”.

What about the “IRF4 protein in cells” value (IRF4) of the same molecule?
The value was “decreased IRF4”.

And the “cell cycle and apoptosis” value [2]?
Its value is “time-dependent apoptosis was preceded by a G2/M arrest”.

And the IC50 (U2932)?
The IC50 was 127 nM.

What about the cellular viability [3] of the same molecule?
Its cellular viability is “decrease in cellular viability”.

And the apoptosis of cells ([3]; 48 hours)?
Its apoptosis of cells is “induced dose-dependent apoptosis”.

What about the EC50 (EWS-FLI1) of the same molecule?
Its EC50 is under 100 nM.

And the IC50 (DOHH2)?
Its IC50 is 160 nM.

And the IC50 (MOLM-16)?
Its IC50 is 129 nM.

What about the “binding of SPIB to RHA” value (SPIB to RHA) of the same molecule?
The value was “decreased”.

And the “binding of SPIB to DDX5” value (SPIB to DDX5)?
Its value is “to a lesser extent, to DDX5 was decreased”.

And the IC50 (TMD-8)?
Its IC50 is 152 nM.
